Reference: patent US8906909B2 (Curis, Inc., priority 2009, dated 2014)

What follows are molecules tested on HDACs (HeLa cell nuclear extracts) (assay: HDAC enzymatic activity, Biomol Color de Lys system).
Type: biochemical
Description: (e) An In Vitro Assay which Determines the Ability of a Test Compound to Inhibit HDAC Enzymatic Activity.
HDAC inhibitory activity was assessed using the Biomol Color de Lys system (AK-500, Biomol, Plymouth Meeting, Pa.). Briefly, HeLa cell nuclear extracts were used as a source of HDACs. Different concentrations of test compounds were serially diluted in dimethylsulphoxide (DMSO) and added to HeLa cell nuclear extracts in the presence of a colorimetric artificial substrate. Final assay condition contained 50 mM Tris/Cl, pH 8.0, 137 mM NaCl, 2.7 mM KCl and 1 mM MgCl2. Reactions were carried in room temperature (25° C.) for 1 hour before addition of developer for termination. Relative enzyme activity was measured in the WALLAC Victor II 1420 microplate reader as floorescence intensity (excitation: 350-380 nm; emission: 440-460 nm). Data were analyzed using GraphPad Prism (v4.0a) with a sigmoidal dose response curve fitting for IC50 calculation.

Row | SMILES | IC50
1 | O=C(CCCCNc1cc2nc(-c3cccc4[nH]ncc34)nc(N3CCOCC3)c2s1)NO [Compound 18] | < 100 nM
2 | O=C(CCCCCNc1cc2nc(-c3cccc4[nH]ncc34)nc(N3CCOCC3)c2s1)NO [Compound 19] | < 100 nM
3 | O=C(CCCCCCNc1cc2nc(-c3cccc4[nH]ncc34)nc(N3CCOCC3)c2s1)NO [Compound 20] | < 100 nM
4 | CS(=O)(=O)N1CCN(Cc2cc3nc(-c4cccc5[nH]ncc45)nc(NCCCCC(=O)NO)c3s2)CC1 [Compound 34] | 100 to 1000 nM
5 | CS(=O)(=O)N1CCN(Cc2cc3nc(-c4cccc5[nH]ncc45)nc(NCCCCCC(=O)NO)c3s2)CC1 [Compound 35] | < 100 nM
6 | CS(=O)(=O)N1CCN(Cc2cc3nc(-c4cccc5[nH]ncc45)nc(NCCCCCCC(=O)NO)c3s2)CC1 [Compound 36] | < 100 nM
7 | O=C(NO)c1cc2nc(-c3cccc4[nH]ncc34)nc(N3CCOCC3)c2s1 [Compound 45] | > 10000 nM
8 | O=C(/C=C/c1cc2nc(-c3cccc4[nH]ncc34)nc(N3CCOCC3)c2s1)NO [Compound 46] | 1000 to 10000 nM
9 | O=C(NO)c1cnc(N2CCC(CNc3cc4nc(-c5cccc6[nH]ncc56)nc(N5CCOCC5)c4s3)CC2)nc1 [Compound 48] | < 100 nM
10 | CN(CC1CCN(c2ncc(C(=O)NO)cn2)CC1)c1cc2nc(-c3cccc4[nH]ncc34)nc(N3CCOCC3)c2s1 [Compound 49] | 100 to 1000 nM
11 | O=C(/C=C/c1ccc(S(=O)(=O)Nc2cc3nc(-c4cccc5[nH]ncc45)nc(N4CCOCC4)c3s2)cc1)NO [Compound 50] | < 100 nM
12 | O=C(NO)c1cnc(N2CCN(S(=O)(=O)c3cc4nc(-c5cccc6[nH]ncc56)nc(N5CCOCC5)c4s3)CC2)nc1 [Compound 51] | 100 to 1000 nM
13 | CN(Cc1cc2nc(-c3cccc4[nH]ncc34)nc(N3CCNCC3)c2s1)c1ncc(C(=O)NO)cn1 [Compound 60] | < 100 nM
14 | CN1CCN(c2nc(-c3cccc4[nH]ncc34)nc3cc(CN(C)c4ncc(C(=O)NO)cn4)sc23)CC1 [Compound 61] | < 100 nM
15 | CC(=O)N1CCN(c2nc(-c3cccc4[nH]ncc34)nc3cc(CN(C)c4ncc(C(=O)NO)cn4)sc23)CC1 [Compound 62] | < 100 nM
16 | CN(Cc1cc2nc(-c3cccc4[nH]ncc34)nc(N3CCN(CCO)CC3)c2s1)c1ncc(C(=O)NO)cn1 [Compound 63] | < 100 nM
17 | CC1CN(c2nc(-c3cccc4[nH]ncc34)nc3cc(CN(C)c4ncc(C(=O)NO)cn4)sc23)CC(C)O1 (stereo not shown) [Compound 65] | < 100 nM
18 | CC1COCC(C)N1c1nc(-c2cccc3[nH]ncc23)nc2cc(CN(C)c3ncc(C(=O)NO)cn3)sc12 (stereo not shown) [Compound 66] | < 100 nM
19 | CN(Cc1cc2nc(-c3cccc4[nH]ncc34)nc(N3CCCCC3)c2s1)c1ncc(C(=O)NO)cn1 [Compound 67] | < 100 nM
20 | Cc1c(CN(C)c2ncc(C(=O)NO)cn2)sc2c(N3CCOCC3)nc(-c3cccc4[nH]ncc34)nc12 [Compound 68] | < 100 nM
21 | CC(C)(Nc1ncc(C(=O)NO)cn1)c1cc2nc(-c3cccc4[nH]ncc34)nc(N3CCOCC3)c2s1 [Compound 71] | < 100 nM
22 | O=C(NO)c1cnc(NCc2cc3cc(-c4cccc5[nH]ncc45)nc(N4CCOCC4)c3s2)nc1 [Compound 73] | < 100 nM
23 | CN(Cc1cc2cc(-c3cccc4[nH]ncc34)nc(N3CCOCC3)c2s1)c1ncc(C(=O)NO)cn1 [Compound 74] | < 100 nM
24 | CN(Cc1cc2nc(-c3cccc4[nH]ncc34)nc(N3CCOCC3)c2s1)c1ccc(C(=O)NO)cc1 [Compound 79] | < 100 nM
25 | O=C(O)CN(Cc1cc2nc(-c3cccc4[nH]ncc34)nc(N3CCOCC3)c2s1)c1ncc(C(=O)NO)cn1 [Compound 88] | 100 to 1000 nM

Row | SMILES | IC50
26 | COC(=O)CN(Cc1cc2nc(-c3cccc4[nH]ncc34)nc(N3CCOCC3)c2s1)c1ncc(C(=O)NO)cn1 [Compound 89] | < 100 nM
27 | NCCN(Cc1cc2nc(-c3cccc4[nH]ncc34)nc(N3CCOCC3)c2s1)c1ncc(C(=O)NO)cn1 [Compound 94] | < 100 nM
28 | CN(C)CCN(Cc1cc2nc(-c3cccc4[nH]ncc34)nc(N3CCOCC3)c2s1)c1ncc(C(=O)NO)cn1 [Compound 95] | 100 to 1000 nM
29 | CC(=O)NCCN(Cc1cc2nc(-c3cccc4[nH]ncc34)nc(N3CCOCC3)c2s1)c1ncc(C(=O)NO)cn1 [Compound 96] | < 100 nM
30 | NC(=O)CN(Cc1cc2nc(-c3cccc4[nH]ncc34)nc(N3CCOCC3)c2s1)c1ncc(C(=O)NO)cn1 [Compound 97] | < 100 nM
31 | C#CCCN(Cc1cc2nc(-c3cccc4[nH]ncc34)nc(N3CCOCC3)c2s1)c1ncc(C(=O)NO)cn1 [Compound 98] | < 100 nM
32 | O=C(NO)c1ccc2c(ccn2Cc2cc3nc(-c4cccc5[nH]ncc45)nc(N4CCOCC4)c3s2)c1 [Compound 105] | 100 to 1000 nM
33 | Cn1cc(CNc2cc3nc(-c4cccc5[nH]ncc45)nc(N4CCOCC4)c3s2)c2cc(C(=O)NO)ccc21 [Compound 106] | 1000 to 10000 nM
34 | CN(Cc1cc2nc(-c3cnc(C(N)=O)nc3)nc(N3CCOCC3)c2s1)c1ncc(C(=O)NO)cn1 [Compound 122] | < 100 nM
35 | CN(Cc1cc2nc(-c3cccc(C(N)=O)c3)nc(N3CCOCC3)c2s1)c1ncc(C(=O)NO)cn1 [Compound 142, 2-(((2-(3-carbamoylphenyl)-4-morpholinothieno[3,2-d]pyrimidin-6-yl)methyl)(methyl)amino)-N-hydroxypyrimidine-5-carboxamide] | < 100 nM
36 | CCN(CC)c1nc(-c2cccc3[nH]ncc23)nc2cc(CN(C)c3ncc(C(=O)NO)cn3)sc12 [Compound 158] | < 100 nM
37 | CN(C)c1nc(-c2cccc3[nH]ncc23)nc2cc(CN(C)c3ncc(C(=O)NO)cn3)sc12 [Compound 159] | < 100 nM
38 | COCCNc1nc(-c2cccc3[nH]ncc23)nc2cc(CN(C)c3ncc(C(=O)NO)cn3)sc12 [Compound 160] | < 100 nM
39 | CN(Cc1cc2nc(-c3cccc4[nH]ncc34)nc(NCCO)c2s1)c1ncc(C(=O)NO)cn1 [Compound 161] | < 100 nM
40 | CN(Cc1cc2nc(-c3cccc4[nH]ncc34)nc(N(CCO)CCO)c2s1)c1ncc(C(=O)NO)cn1 [Compound 162] | < 100 nM
41 | COCCN(CCOC)c1nc(-c2cccc3[nH]ncc23)nc2cc(CN(C)c3ncc(C(=O)NO)cn3)sc12 [Compound 163] | < 100 nM
42 | COc1ccc(Nc2nc(-c3cccc4[nH]ncc34)nc3cc(CN(C)c4ncc(C(=O)NO)cn4)sc23)cc1 [Compound 165] | < 100 nM
43 | COc1cccc(Nc2nc(-c3cccc4[nH]ncc34)nc3cc(CN(C)c4ncc(C(=O)NO)cn4)sc23)c1 [Compound 166] | < 100 nM
44 | COc1ccccc1Nc1nc(-c2cccc3[nH]ncc23)nc2cc(CN(C)c3ncc(C(=O)NO)cn3)sc12 [Compound 167] | < 100 nM
45 | CN(Cc1cc2nc(-c3cccc4c3CC(=O)N4)nc(N3CCOCC3)c2s1)c1ncc(C(=O)NO)cn1 [Compound 178] | < 100 nM
46 | CN(Cc1cc2nc(-c3cccc4c3CNC4=O)nc(N3CCOCC3)c2s1)c1ncc(C(=O)NO)cn1 [Compound 181] | < 100 nM
47 | CN(Cc1cc2nc(-c3ccc4c(c3)NC(=O)CO4)nc(N3CCOCC3)c2s1)c1ncc(C(=O)NO)cn1 [Compound 183] | < 100 nM
48 | CN(Cc1cc2nc(-c3c[nH]c4ccccc34)nc(N3CCOCC3)c2s1)c1ncc(C(=O)NO)cn1 [Compound 184] | < 100 nM
49 | CN(Cc1cc2nc(-c3ccc4c(c3)OCCN4)nc(N3CCOCC3)c2s1)c1ncc(C(=O)NO)cn1 [Compound 191] | < 100 nM
